From paper PMC2752819 (Assay and drug development technologies, 2008)
Where two headings read alike, the source gives them in different places.

Columns and labels:
[1] = cited from earlier work
MKP-1 = target: T1, MKP-1 (Homo sapiens, UniProt P28562); assay: biochemical
T1 sequence (P28562 1-367): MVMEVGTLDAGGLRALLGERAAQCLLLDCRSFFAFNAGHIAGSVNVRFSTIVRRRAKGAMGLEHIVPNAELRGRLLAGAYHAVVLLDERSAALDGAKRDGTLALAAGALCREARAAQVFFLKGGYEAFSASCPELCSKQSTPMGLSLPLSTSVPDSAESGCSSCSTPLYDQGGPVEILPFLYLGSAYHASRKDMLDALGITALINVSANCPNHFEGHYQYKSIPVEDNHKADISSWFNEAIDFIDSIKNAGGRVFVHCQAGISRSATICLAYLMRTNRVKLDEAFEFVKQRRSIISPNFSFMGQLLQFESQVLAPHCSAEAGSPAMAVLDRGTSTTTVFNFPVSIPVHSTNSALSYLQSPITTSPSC

[2] = MKP-1 + 1 mM DTT + catalase IC50, 1 mM DTT + 100 U of catalase
[3] = MKP-1 + 25 mM DTT IC50, 25 mM DTT
[4] = read-out: MKP-1 + 1 mM DTT % inhibition at 50 μM
[5] = read-out: MKP-1 + 1 mM DTT + catalase % inhibition at 50 μM
[6] = read-out: MKP-1 + 25 mM DTT % inhibition at 50 μM

In the case of `O=C1C(=O)c2ccccc2-c2ccccc21` [9,10-phenanthrenedione], the “H2O2 generation in the presence of DTT” value [1] is given as “generate significant amounts of H2O2”.
For `CCn1nc(-c2ccccc2)nc2c(=O)n(C)c(=O)nc1-2` [compound 845167, 1-ethyl-6-methyl-3-phenylpyrimido[5,6-e][1,2,4]triazine-5,7-dione], the IC50 (MKP-1; [2]) was > 50 µM, the IC50 (MKP-1; [3]) was 4.9 µM and the inhibition at 50 µM (MKP-1; [4]) was 95.6%. The inhibition at 50 µM (MKP-1; [5]) was -66.3% and the inhibition at 50 µM (MKP-1; [6]) was 96.2%.
In the case of `N#Cc1c(N)sc(=S)c2c1CCN(Cc1ccccc1)C2` [compound 845964, 3-amino-7-(phenylmethyl)-1-sulfanylidene-6,8-dihydro-5H-thiopyrano[5,4-c]pyridine-4-carbonitrile], the IC50 (MKP-1; [2]) is reported as > 50 µM, the IC50 (MKP-1; [3]) is reported as > 50 µM and the inhibition at 50 µM (MKP-1; [4]) is reported as 95.2%. It also gave an inhibition at 50 µM (MKP-1; [5]) of 47.7% and an inhibition at 50 µM (MKP-1; [6]) of 35.7%.
In the case of `CCn1nc(-c2cccs2)nc2c(=O)n(C)c(=O)nc1-2` [compound 850758, 1-ethyl-6-methyl-3-thiophen-2-ylpyrimido[5,6-e][1,2,4]triazine-5,7-dione], the IC50 (MKP-1; [2]) is reported as > 50 µM, the IC50 (MKP-1; [3]) is reported as 4.43 µM and the inhibition at 50 µM (MKP-1; [4]) is reported as 94.4%. The inhibition at 50 µM (MKP-1; [5]) was -92.2% and the inhibition at 50 µM (MKP-1; [6]) was 98.2%.
With `CCCCn1c(NC(=O)c2ccccc2)c(C#N)c2nc3ccccc3nc21` [compound 3712327, N-(1-butyl-3-cyanopyrrolo[5,4-b]quinoxalin-2-yl)benzamide] the IC50 (MKP-1; [3]) was > 50 µM, the inhibition at 50 µM (MKP-1; [4]) was 79.9% and the inhibition at 50 µM (MKP-1; [5]) was 69.9%. It also gave an inhibition at 50 µM (MKP-1; [6]) of -5.25%.
With `Cn1ncnc2c(=O)n(C)c(=O)nc1-2` [compound 4251194, 1,6-dimethylpyrimido[5,6-e][1,2,4]triazine-5,7-dione] the IC50 (MKP-1; [2]) was > 50 µM, the IC50 (MKP-1; [3]) was 5.68 µM and the inhibition at 50 µM (MKP-1; [4]) was 94.4%. For the same compound, the inhibition at 50 µM (MKP-1; [5]) was -27.2% and the inhibition at 50 µM (MKP-1; [6]) was 98%.
